Reference: patent US9708331B2, “Metabotrophic glutamate receptor 5 modulators and methods of use thereof” (SUNOVION PHARMACEUTICALS INC., priority 2011, dated 2017)
pEC50: −log10 of the molar value.

Target: mGluR5 (Homo sapiens, UniProt P41594)
Assay: mGluR5 PAM EC50 (positive allosteric modulator potency)
Assay type: cell-based

mGluR5, sequence (P41594 21-1212): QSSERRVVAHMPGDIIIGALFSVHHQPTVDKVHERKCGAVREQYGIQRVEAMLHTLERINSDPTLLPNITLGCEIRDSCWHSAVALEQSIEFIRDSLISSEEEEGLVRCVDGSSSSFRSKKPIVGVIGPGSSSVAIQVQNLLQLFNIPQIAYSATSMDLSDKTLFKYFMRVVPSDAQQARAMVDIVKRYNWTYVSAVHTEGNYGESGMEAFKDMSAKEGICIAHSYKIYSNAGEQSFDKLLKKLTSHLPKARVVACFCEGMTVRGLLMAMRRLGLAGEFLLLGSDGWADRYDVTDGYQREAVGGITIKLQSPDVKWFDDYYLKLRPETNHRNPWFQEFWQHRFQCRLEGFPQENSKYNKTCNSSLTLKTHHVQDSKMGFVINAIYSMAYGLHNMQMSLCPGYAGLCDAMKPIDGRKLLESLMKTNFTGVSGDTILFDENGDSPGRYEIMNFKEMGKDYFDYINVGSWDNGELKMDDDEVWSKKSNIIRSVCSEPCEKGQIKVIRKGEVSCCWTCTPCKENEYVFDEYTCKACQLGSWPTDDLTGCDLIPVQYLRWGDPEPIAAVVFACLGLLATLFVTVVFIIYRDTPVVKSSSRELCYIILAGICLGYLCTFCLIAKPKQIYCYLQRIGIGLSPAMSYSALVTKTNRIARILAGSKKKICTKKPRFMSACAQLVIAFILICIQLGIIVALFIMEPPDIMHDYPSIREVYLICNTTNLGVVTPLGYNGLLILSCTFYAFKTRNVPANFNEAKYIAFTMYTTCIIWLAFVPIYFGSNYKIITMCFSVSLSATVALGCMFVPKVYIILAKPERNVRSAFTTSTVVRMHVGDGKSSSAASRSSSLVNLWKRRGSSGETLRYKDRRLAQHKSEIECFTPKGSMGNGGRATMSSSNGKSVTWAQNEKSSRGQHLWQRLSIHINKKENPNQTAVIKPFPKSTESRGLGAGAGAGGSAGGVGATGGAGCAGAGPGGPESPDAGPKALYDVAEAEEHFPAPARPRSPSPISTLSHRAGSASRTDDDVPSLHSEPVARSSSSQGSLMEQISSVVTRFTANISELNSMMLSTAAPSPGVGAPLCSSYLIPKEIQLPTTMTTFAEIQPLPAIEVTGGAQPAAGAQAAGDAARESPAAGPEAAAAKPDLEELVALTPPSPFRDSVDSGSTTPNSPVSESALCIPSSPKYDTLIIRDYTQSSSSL

SMILES: CC1(C)CCn2c(nc3cc(/C=C/c4cc(C#N)ccn4)ccc3c2=O)C1 [Example 4.1a, (E)-2-(2-(7,7-dimethyl-11-oxo-7,8,9,11-tetrahydro-6H-pyrido[2,1-b]quinazolin-3-yl)vinyl)isonicotinonitrile]
- pEC50: 6.00 to 6.52

SMILES: Cc1cc(C#Cc2ccc3c(=O)n4c(nc3c2)CCC(C)(C)C4)sn1 [Example 2.51, 8,8-dimethyl-3-((3-methylisothiazol-5-yl)ethynyl)-8,9-dihydro-6H-pyrido[2,1-b]quinazolin-11(7H)-one]
- pEC50: > 8.00

SMILES: O=c1c2ccc(C#Cc3ccccn3)cc2nc2n1CCC1(CCCO1)CC2 (single isomer, unassigned) [Example 3.3b]
- pEC50: 6.52 to 7.00

SMILES: O=c1c2ccc(C#Cc3ccccn3)cc2nc2n1CCC(F)CC2 (single isomer, unassigned) [Example 3.1a]
- pEC50: 7.00 to 7.52

SMILES: CC1(C)CCc2nc3cc(C#Cc4ccc(F)cc4)ccc3c(=O)n2C1 [Example 2.75, 3-((4-fluorophenyl)ethynyl)-8,8-dimethyl-8,9-dihydro-6H-pyrido[2,1-b]quinazolin-11(7H)-one]
- pEC50: 7.52 to 8.00

SMILES: CC1(C)CCn2c(nc3cc(C#Cc4cc(C#N)ccn4)ccc3c2=O)C1 [Example 2.25a, 2-((7,7-dimethyl-11-oxo-7,8,9,11-tetrahydro-6H-pyrido[2,1-b]quinazolin-3-yl)ethynyl)isonicotinonitrile]
- pEC50: 7.52 to 8.00

SMILES: CC1(F)CCCc2nc3cc(C#Cc4ccccn4)cnc3c(=O)n2C1 (stereo not drawn) [Example 3.25, 9-fluoro-9-methyl-3-(pyridin-2-ylethynyl)-7,8,9,10-tetrahydropyrido[3′,2′:4,5]pyrimido [1,2-a]azepin-12(6H)-one]
- pEC50: 6.52 to 7.00

SMILES: CC1(C)CCc2nc3cc(-c4nc(-c5ccccn5)c[nH]4)ccc3c(=O)n2C1 [Example 6.21, 8,8-dimethyl-3-(4-(pyridin-2-yl)-1H-imidazol-2-yl)-8,9-dihydro-6H-pyrido[2,1-b]quinazolin-11(7H)-one]
- pEC50: 6.00 to 6.52

SMILES: COC1CCc2nc3cc(C#Cc4ccccn4)cnc3c(=O)n2CC1 (stereo not drawn) [Example 3.23, 8-methoxy-3-(pyridin-2-ylethynyl)-7,8,9,10-tetrahydropyrido[3′,2′:4,5]pyrimido [1,2-a]azepin-19(6H)-one]
- pEC50: 6.52 to 7.00

SMILES: O=c1c2ncc(C#Cc3ccccn3)cc2nc2n1CCC(C(F)(F)F)CC2 (single isomer, unassigned) [Example 3.9a]
- pEC50: 7.00 to 7.52

SMILES: O=c1c2ccc(C#Cc3ccccn3)cc2nc2n1CC1(CCC2)COC1 [Example 3.38, 3-(pyridin-2-ylethynyl)-7,8-dihydro-6H-spiro[azepino[2,1-b]quinazoline-9,3′-oxetan]-12(10H)-one]
- pEC50: 7.52 to 8.00

SMILES: CC(C)(O)C1Cc2nc3cc(C#Cc4ccccn4)ccc3c(=O)n2C1 (single isomer, unassigned) [Example 1.2b]
- pEC50: 6.00 to 6.52

SMILES: CC1(C)CCc2nc3cc(C#Cc4ccnc(F)c4)ccc3c(=O)n2C1 [Example 2.92, 3-((2-fluoropyridin-4-yl)ethynyl)-8,8-dimethyl-8,9-dihydro-6H-pyrido[2,1-b]quinazolin-11(7H)-one]
- pEC50: > 8.00

SMILES: O=c1c2ccc(C#Cc3ccccn3)cc2nc2n1CCN1CCC2C1 (stereo not drawn) [Example 3.6, 9-(pyridin-2-ylethynyl)-1,2,5,6-tetrahydro-3,6-methano[1,4]diazocino[8,1-b]quinazolin-12(4H)-one]
- pEC50: 6.52 to 7.00

SMILES: CC1(C)CCc2nc3cc(-c4ncc(-c5ccccn5)cn4)ccc3c(=O)n2C1 [Example 6.42, 8,8-dimethyl-3-(5-(pyridin-2-yl)pyrimidin-2-yl)-8,9-dihydro-6H-pyrido[2,1-b]quinazolin-11(7H)-one]
- pEC50: 6.00 to 6.52

SMILES: CC1(C)CCc2nc3cc(C(=O)Nc4ccccn4)ccc3c(=O)n2C1 [Example 4.8, 8,8-dimethyl-11-oxo-N-(pyridin-2-yl)-7,8,9,11-tetrahydro-6H-pyrido[2,1-b]quinazoline-3-carboxamide]
- pEC50: 6.52 to 7.00

SMILES: CCC1CCCc2nc3cc(C#Cc4ccccn4)ccc3c(=O)n21 (single isomer, unassigned) [Example 2.7b]
- pEC50: > 8.00

SMILES: CC1(C)Cc2nc3c(F)c(C#Cc4ccccn4)ccc3c(=O)n2C1 [Example 1.16, 5-fluoro-2,2-dimethyl-6-(pyridin-2-ylethynyl)-2,3-dihydropyrrolo[2,1-b]quinazolin-9(1H)-one]
- pEC50: > 8.00

SMILES: CC1(C)CCc2nc3cc(NC(=O)c4ccccn4)ccc3c(=O)n2C1 [Example 4.7, N-(8,8-dimethyl-11-oxo-7,8,9,11-tetrahydro-6H-pyrido[2,1-b]quinazolin-3-yl)picolinamide]
- pEC50: 6.52 to 7.00

SMILES: O=c1c2ccc(C#Cc3ccccn3)cc2nc2n1C[C@H]1CCCN21 (stereo in doubt) [Example 1.22]
- pEC50: 7.00 to 7.52

SMILES: O=c1c2ccc(C#Cc3ccccn3)cc2nc2n1CC(CF)C2 (single isomer, unassigned) [Example 1.9a]
- pEC50: 7.00 to 7.52

SMILES: CC1(C)CCc2nc3cc(C#Cc4ncc(F)cn4)ccc3c(=O)n2C1 [Example 2.54, 3-((5-fluoropyrimidin-2-yl)ethynyl)-8,8-dimethyl-8,9-dihydro-6H-pyrido[2,1-b]quinazolin-11(7H)-one]
- pEC50: 7.00 to 7.52

SMILES: CCC1CCc2nc3cc(C#Cc4ccccn4)ccc3c(=O)n2CC1 (single isomer, unassigned) [Example 3.13b]
- pEC50: 7.52 to 8.00

SMILES: CCC1CCn2c(nc3cc(C#Cc4ccccn4)cnc3c2=O)C1 (single isomer, unassigned) [Example 2.22c]
- pEC50: 7.52 to 8.00

SMILES: CC1CCc2nc3cc(C#Cc4cc(C#N)ccn4)ccc3c(=O)n2CC1 (stereo not drawn) [Example 3.19, 2-((8-methyl-12-oxo-6,7,8,9,10,12-hexahydroazepino[2,1-b]quinazolin-3-yl)ethynyl)isonicotinonitrile]
- pEC50: 7.00 to 7.52

SMILES: COc1ccc(C#Cc2ccc3c(=O)n4c(nc3c2)CCC(C)(C)C4)nc1 [Example 2.40, 3-((5-methoxypyridin-2-yl)ethynyl)-8,8-dimethyl-8,9-dihydro-6H-pyrido[2,1-b]quinazolin-11(7H)-one]
- pEC50: 7.00 to 7.52

SMILES: CC(C)(F)C1Cc2nc3cc(C#Cc4ccccn4)ccc3c(=O)n2C1 (single isomer, unassigned) [Example 1.3b]
- pEC50: 6.52 to 7.00

SMILES: CC(C)(F)C1Cc2nc3cc(C#Cc4ccccn4)ccc3c(=O)n2C1 (single isomer, unassigned) [Example 1.3a]
- pEC50: > 8.00

SMILES: O=c1c2ccc(C#Cc3ccccn3)cc2nc2n1C[C@H]1CCCN1C2 [Example 2.104, (R)-8-(pyridin-2-ylethynyl)-2,3,13,13a-tetrahydro-1H-pyrrolo[1′,7′:4,5]pyrazino[2,1-b]quinazolin-11(5H)-one]
- pEC50: 7.00 to 7.52

SMILES: CC1Cc2nc3cc(C#Cc4ccccn4)cnc3c(=O)n2CCC1(F)F (single isomer, unassigned) [Example 3.31c]
- pEC50: 7.00 to 7.52

SMILES: O=C(Nc1ccccn1)c1ccc2c(=O)n3c(nc2c1)CCC(F)(F)CC3 [Example 5.4, 8,8-difluoro-12-oxo-N-(pyridin-2-yl)-6,7,8,9,10,12-hexahydroazepino[2,1-b]quinazoline-3-carboxamide]
- pEC50: 6.00 to 6.52

SMILES: CC1(C)CCn2c(nc3cc(C#Cc4cccc(C#N)n4)ccc3c2=O)C1 [Example 2.24a, 6-((7,7-dimethyl-11-oxo-7,8,9,11-tetrahydro-6H-pyrido[2,1-b]quinazolin-3-yl)ethynyl)picolinonitrile]
- pEC50: > 8.00

SMILES: O=c1c2ccc(C#Cc3ccccn3)cc2nc2n1CCC1(CO)CC21 (stereo not drawn) [Example 2.103, 1a-(hydroxymethyl)-8-(pyridin-2-ylethynyl)-1,2,3,10b-tetrahydrocyclopropa[3,4]pyrido [2,1-b]quinazolin-5(1aH)-one]
- pEC50: 6.52 to 7.00

SMILES: CC1(C)CCn2c(nc3c(F)c(C#Cc4ccccn4)ccc3c2=O)C1 [Example 2.30a, 4-fluoro-7,7-dimethyl-3-(pyridin-2-ylethynyl)-8,9-dihydro-6H-pyrido[2,1-b]quinazolin-11(7H)-one]
- pEC50: 7.52 to 8.00

SMILES: CC1(C)CCc2nc3cc(C#Cc4ncccc4F)ccc3c(=O)n2C1 [Example 2.86, 3-((3-fluoropyridin-2-yl)ethynyl)-8,8-dimethyl-8,9-dihydro-6H-pyrido[2,1-b]quinazolin-11(7H)-one]
- pEC50: > 8.00

SMILES: CC1(C)C=Cc2nc3cc(C#Cc4ccccn4)ccc3c(=O)n2CC1 [Example 3.42, 8,8-dimethyl-3-(pyridin-2-ylethynyl)-9,10-dihydroazepino[2,1-b]quinazolin-12(8H)-one]
- pEC50: 7.00 to 7.52

SMILES: COCCC1Cc2nc3cc(C#Cc4ccccn4)ccc3c(=O)n2C1 (stereo not drawn) [Example 1.5, 2-(2-methoxyethyl)-6-(pyridin-2-ylethynyl)-2,3-dihydropyrrolo[2,1-b]quinazolin-9(1H)-one]
- pEC50: 6.52 to 7.00

SMILES: CC1(C)CCc2nc3cc(-c4nnc(-c5ccccn5)s4)ccc3c(=O)n2C1 [Example 6.38, 8,8-dimethyl-3-(5-(pyridin-2-yl)-1,3,4-thiadiazol-2-yl)-8,9-dihydro-6H-pyrido[2,1-b]quinazolin-11(7H)-one]
- pEC50: 6.52 to 7.00

SMILES: O=c1c2ncc(C#Cc3ccccn3)cc2nc2n1CCC(F)(F)CC2 [Example 3.16, 8,8-difluoro-3-(pyridin-2-ylethynyl)-7,8,9,10-tetrahydropyrido[3′,2′:4,5]pyrimido [1,2-a]azepin-12(6H)-one]
- pEC50: 6.52 to 7.00

SMILES: CC1(C)CCc2nc3cc(C#Cc4ccncc4F)ccc3c(=O)n2C1 [Example 2.91, 3-((3-fluoropyridin-4-yl)ethynyl)-8,8-dimethyl-8,9-dihydro-6H-pyrido[2,1-b]quinazolin-11(7H)-one]
- pEC50: > 8.00

SMILES: CC1(C)CCc2nc3cc(COc4ccccn4)ccc3c(=O)n2C1 [Example 6.4, 8,8-dimethyl-3-((pyridin-2-yloxy)methyl)-8,9-dihydro-6H-pyrido[2,1-b]quinazolin-11(7H)-one]
- pEC50: 6.52 to 7.00

SMILES: O=c1c2ccc(C#Cc3ccccn3)cc2nc2n1CCC1COCC1C2 (single isomer, unassigned) [Example 3.2f]
- pEC50: > 8.00

SMILES: CC1(C)Cn2c(nc3cc(C#Cc4ccccn4)ccc3c2=O)C1F (single isomer, unassigned) [Example 1.11b]
- pEC50: 7.52 to 8.00

SMILES: CCC1CCCc2nc3cc(C#Cc4ccccn4)ccc3c(=O)n21 (single isomer, unassigned) [Example 2.7a]
- pEC50: 7.00 to 7.52

SMILES: CC1(C)Cc2nc3cc(NC(=O)c4ccccn4)ccc3c(=O)n2C1 [Example 4.18, N-(2,2-dimethyl-9-oxo-1,2,3,9-tetrahydropyrrolo[2,1-b]quinazolin-6-yl)picolinamide]
- pEC50: 6.00 to 6.52
